# Like-named read-outs stand apart in the source and are kept apart here.
# Assays:
# [1] = test system: patient-derived osteosarcoma xenograft; assay: Treatment of patient-derived osteosarcoma xenograft mice in vivo (MRI tumor volume, H&E, cleaved-caspase 3); parameters: species or system mouse
# Description: (§1) Xenograft mice bearing human osteosarcoma tumor were treated with vehicle, gemcitabine, MK-1775, or a combination of gemcitabine and MK-1775 for 15 days. Treatments were administered on day 1, 3, 8, and 10. FNAB samples were taken before (day 0) and at 6 and 24 hours after treatment. Cell extracts were prepared from the FNAB samples to assess expression levels of CDC2Y15, a target for MK-1775, by Western blot. After day 15, tumors were analyzed by T2-weighted MRIs and paraffin sections of tumors were prepared to assess microscopic features of cell death by H&E-staining and to assess levels of cleaved-caspase 3.
# The symbol (*) indicates statistical significance (p<0.05).
# CDC2Y15 = assay: Western blot of CDC2Y15 expression in FNAB cell extracts from treated xenograft mice; parameters: species or system mouse; conditions: in vivo treatment; compared to vehicle and gemcitabine treatments; FIG. 7A column (a)
# Description: as §1
# [2] = test system: FNAB osteosarcoma samples; assay: Ex vivo treatment of FNAB osteosarcoma samples in microfluidic apparatus, LIVE/DEAD fluorescence staining; type: cell-based, human
# Text: Eight micro-scale fluidic apparatuses of the present technology were fabricated from soft photolithography and bonded onto glass coverslip slides. The apparatuses were sterilized by ethylene oxide (EtO) gas. Each fluidic apparatus included a single channel, and the center of the channel contained a series of seven free standing post, collectively called the retaining element, which were used to retain the FNBA osteosarcoma sample (see FIG. 3A). Fluid flows into the channel by an inlet port and out of the channel by an outlet port.
# FNAB osteosarcoma samples were taken from xenograft mouse with patient-derived osteosarcoma using a 25-gauge needle. FNABs were processed and selected for viability by H&E staining procedures before use and individually loaded one into each retaining element and imaged by microscopy and measured for size (all FNABs assayed were ˜300 μm in diameter). […]
# The fluidic apparatuses were connected to their respective syringe pumps. […] Media was collected every 24 hours and analyzed for caspase 3 and 7 and lactate dehydrogenase (LDH). […]
# The FNAB samples were fully penetrated by drugs. Tumor cells were stained with HCS LIVE/DEAD® Green Kit (Life Technologies, Carlsband, Calif.) and images were obtained using inverted fluorescence microscope to assess dead (green) and alive (blue) cells.
# [3] = test system: tumor fragments obtained by FNAB from a patient-derived osteosarcoma xenograft model; type: in vitro ADME, human
# Description: (§2) FIG. 8 provides an expanded view of an extracted ion chromatogram (XIC) from a potential metabolite highlighted against the background sample. Perfused fluid was collected from the fluidic apparatus as described in the above experiment performed with the FNAB samples (FIGS. 2A-C) to determine whether tumor-mediated drug processing and metabolism can be analyzed. Fluidic samples were prepared by filtration and analyzed by mass spectrometry.
# [4] = test system: FNAB osteosarcoma samples; assay: Active caspase ELISA of perfused fluid from fluidic apparatus; type: cell-based, human; conditions: data not shown
# Description: The fluidic apparatuses were connected to their respective syringe pumps. The FNAB samples were first primed with several passes of culture media. After priming, each FNAB sample was subject to constant laminar flow at 100 μl/hr for 72 hours with their respective treatment. Media was collected every 24 hours and analyzed for caspase 3 and 7 and lactate dehydrogenase (LDH).
# as §2
# [5] = compared to vehicle and gemcitabine treatments, FIG. 7A column (c)
SMILES,"apoptosis of the cancer cells, in vivo model ([1]; 15 days of treatment)","DNA staining of tumor sections [1, 5]","immunoreactivity to caspase 3 [1, 5]","tumor volume at day 15 ([1]; day 15, compared to vehicle and gemcitabine treatments, FIG. 7A column (b))","cell death in vivo ([1]; patient-derived osteosarcoma xenograft mouse model, FIG. 7A)",expression levels of CDC2Y15 (CDC2Y15),"cell death in tumor fragments ex vivo ([2]; 1 μM MK-1775, 3 μM gemcitabine, 100 μl/hr for 72 hours, LIVE/DEAD stain, FIG. 7C)","apoptosis of the cancer cells, ex vivo model ([2]; 72 hour period)",drug metabolism by tumor fragments (mass spectrometry) ([3]; human),cell death by active caspase ELISA [4],drug metabolism by tumor fragments (mass spectrometry) [3]
C=CCn1c(=O)c2cnc(Nc3ccc(N4CCN(C)CC4)cc3)nc2n1-c1cccc(C(C)(C)O)n1 [MK-1775],able to induce apoptosis,decreased DNA staining,high immunoreactivity to caspase 3,reduced tumor volume,lead to cell death,reduces expression levels of CDC2Y15,lead to cell death,able to induce apoptosis,metabolism of MK-1775 into its metabolized forms,increased cell death,
Nc1ccn([C@@H]2O[C@H](CO)[C@@H](O)C2(F)F)c(=O)n1 [gemcitabine],,,,,,,,,,not,"active metabolism of gemcitabine into its active form, triphosphate"

# Reference: patent publication US9879308B2, “Apparatus for ex vivo microfluidic analysis of biologic samples” (The Charles Stark Draper Laboratory, Inc., priority 2012, dated 2018)
